Data published in PubChem BioAssay AID330 (DTP/NCI, 2004).
Several values for one entry are separate records, joined by “and”; a condition that tells them apart may be missing. Equal entries are not always repeated. Inconclusive results and toxic doses are left out.

System: P388 leukemia ip, CD2F1 mice, survival T/C
Assay: NCI In Vivo Anticancer Drug Screen. Data for tumor model P388 Leukemia (intraperitoneal) in CD2F1 (CDF1) mice
Details: endpoint: median survival time, higher = longer survival
In short: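 Mice carrying the transplanted tumor received test compound or vehicle. Survival was recorded in each group, and the value is the treated-group measurement divided by that of the vehicle-treated control group.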

[1] = dose: 50.0 mg/kg/injection, schedule: Q01DX009 (ip), vehicle: saline with Tween-80
[2] = dose: 100.0 mg/kg/injection, schedule: Q01DX009 (ip), vehicle: saline with Tween-80
[3] = dose: 200.0 mg/kg/injection, schedule: Q01DX009 (ip), vehicle: saline with Tween-80
[4] = dose: 400.0 mg/kg/injection, schedule: Q01DX009 (ip), vehicle: saline with Tween-80
[5] = dose: 50.0 mg/kg/injection, schedule: Q01DX005 (ip), vehicle: saline with Tween-80
[6] = dose: 60.0 mg/kg/injection, schedule: Q01DX005 (ip), vehicle: saline with Tween-80
[7] = dose: 120.0 mg/kg/injection, schedule: Q01DX005 (ip), vehicle: saline with Tween-80
[8] = dose: 240.0 mg/kg/injection, schedule: Q01DX005 (ip), vehicle: saline with Tween-80

O=C(OC1(c2nccc3ccccc23)CCCN(Cc2ccccc2)C1)c1ccccc1 (stereo not given)
T/C [1]: 106 % of control
T/C [2]: 109 % of control
T/C [3]: 104 % of control

NC(CCC(=O)OCCn1c2ccccc2c2ccccc21)C(=O)O (stereo not given)
T/C (dose: 25.0 mg/kg/injection, schedule: Q01DX009 (ip), vehicle: saline with Tween-80): 97 % of control
T/C [1]: 93 % of control
T/C [2]: 97 % of control

CCCCCCCCCCCCCCCc1c(NC(C)(CC)[P+](=O)O)c(=O)n(C)n1C (stereo not given)
T/C (dose: 6.25 mg/kg/injection, schedule: Q01DX009 (ip), vehicle: saline): 112 % of control
T/C (dose: 12.5 mg/kg/injection, schedule: Q01DX009 (ip), vehicle: saline): 100 % of control
T/C (dose: 100.0 mg/kg/injection, schedule: Q01DX009 (ip), vehicle: saline): 101 % of control

CCOC(=O)C1CC1C1=C(C)c2cc3[n-]c(cc4nc(cc5[n-]c(cc1n2)c(C)c5CCC(=O)OC)C(CCC(=O)OC)=C4C)c(C)c3C1CC1C(=O)OCC.[Cl-].[Fe+3] (stereo not given)
T/C (dose: 50.0 mg/kg/injection, schedule: Q01DX005 (ip), vehicle: Klucel (hydroxypropylcellulose) (HPC)): 102 % of control
T/C (dose: 100.0 mg/kg/injection, schedule: Q01DX005 (ip), vehicle: Klucel (hydroxypropylcellulose) (HPC)): 86 % of control
T/C (dose: 200.0 mg/kg/injection, schedule: Q01DX005 (ip), vehicle: Klucel (hydroxypropylcellulose) (HPC)): 100 % of control

Cn1nc([N+](=O)[O-])nc1-c1ccccc1
T/C [1]: 106 % of control
T/C [2]: 98 % of control
T/C [3]: 107 % of control
T/C [4]: 107 % of control

O=C(CN(Cc1ccccc1)Cc1ccccc1)C(O)C1OC(c2ccccc2)OCC1O (stereo not given)
T/C [5]: 91 % of control
T/C (dose: 100.0 mg/kg/injection, schedule: Q01DX005 (ip), vehicle: saline with Tween-80): 88 % of control
T/C (dose: 200.0 mg/kg/injection, schedule: Q01DX005 (ip), vehicle: saline with Tween-80): 89 % of control

CSc1c2c([nH]c(=O)c1C#N)-c1ccccc1CC2
T/C (dose: 30.0 mg/kg/injection, schedule: Q01DX005 (ip), vehicle: saline with Tween-80): 89 % of control
T/C [6]: 91 % of control
T/C [7]: 95 % of control and 96 % of control
T/C [8]: 88 % of control

CCN(CC)CCC(CNc1c2ccc(Cl)cc2nc2ccc(OC)cc12)c1ccccc1 (stereo not given)
T/C (dose: 12.5 mg/kg/injection, schedule: Q01DX005 (ip), vehicle: saline with Tween-80): 98 % of control
T/C (dose: 25.0 mg/kg/injection, schedule: Q01DX005 (ip), vehicle: saline with Tween-80): 100 % of control
T/C [5]: 108 % of control and 115 % of control

O=C(Nc1ccc(S(=O)(=O)F)cc1)/C(=C/c1ccc([N+](=O)[O-])cc1)c1ccccc1
T/C [6]: 102 % of control
T/C [7]: 97 % of control

COc1ccc(C2(c3ccc(OC)cc3)ON(C(c3ccccc3)c3ccccc3)C2=O)cc1
T/C [6]: 95 % of control
T/C [7]: 91 % of control
T/C [8]: 89 % of control

CCCCN1C(=O)/C(=C/c2ccc(OC)cc2)SC1=S
T/C [1]: 100 % of control
T/C [2]: 94 % of control
T/C [3]: 90 % of control

C=C1C(O)C2(O)OCC34C(CC5C(C)=CC(=O)C(O)C5(C)C23)OC(=O)C(OC(=O)C/C=C/CCCCCCCC)C14 (stereo not given)
T/C (dose: 2.0 mg/kg/injection, schedule: Q01DX005 (ip), vehicle: saline + alcohol): 151 % of control
T/C (dose: 4.0 mg/kg/injection, schedule: Q01DX005 (ip), vehicle: saline + alcohol): 151 % of control and 156 % of control
T/C (dose: 8.0 mg/kg/injection, schedule: Q01DX005 (ip), vehicle: saline + alcohol): 198 % of control
T/C (dose: 16.0 mg/kg/injection, schedule: Q01DX005 (ip), vehicle: saline + alcohol): 205 % of control

CC[As](CC)SC1OC(COC(C)=O)C(OC(C)=O)C(OC(C)=O)C1OC(C)=O (stereo not given)
T/C (dose: 50.0 mg/kg/injection, schedule: Q01DX009 (ip), vehicle: saline + alcohol): 116 % of control
T/C [1]: 108 % of control
T/C (dose: 100.0 mg/kg/injection, schedule: Q01DX009 (ip), vehicle: saline + alcohol): 180 % of control
T/C [2]: 115 % of control
T/C (dose: 200.0 mg/kg/injection, schedule: Q01DX009 (ip), vehicle: saline + alcohol): 181 % of control
T/C [3]: 96 % of control
T/C [4]: 102 % of control
